This is an account of results in patent US20240199546A1, “INHIBITORS OF SOLUTE CARRIER FAMILY 6A MEMBER 19 (SLC6A19) AND METHODS OF USE THEREOF” (Maze Therapeutics, Inc., priority 2022, published 2024).

SMILES strings stand for the structures.

Test [1] concerns the target T1, human SLC6A19 and TMEM27 (Homo sapiens, UniProt Q695T7).
T1 construct: expressed in transfected cells
T1 sequence (Q695T7 1-634): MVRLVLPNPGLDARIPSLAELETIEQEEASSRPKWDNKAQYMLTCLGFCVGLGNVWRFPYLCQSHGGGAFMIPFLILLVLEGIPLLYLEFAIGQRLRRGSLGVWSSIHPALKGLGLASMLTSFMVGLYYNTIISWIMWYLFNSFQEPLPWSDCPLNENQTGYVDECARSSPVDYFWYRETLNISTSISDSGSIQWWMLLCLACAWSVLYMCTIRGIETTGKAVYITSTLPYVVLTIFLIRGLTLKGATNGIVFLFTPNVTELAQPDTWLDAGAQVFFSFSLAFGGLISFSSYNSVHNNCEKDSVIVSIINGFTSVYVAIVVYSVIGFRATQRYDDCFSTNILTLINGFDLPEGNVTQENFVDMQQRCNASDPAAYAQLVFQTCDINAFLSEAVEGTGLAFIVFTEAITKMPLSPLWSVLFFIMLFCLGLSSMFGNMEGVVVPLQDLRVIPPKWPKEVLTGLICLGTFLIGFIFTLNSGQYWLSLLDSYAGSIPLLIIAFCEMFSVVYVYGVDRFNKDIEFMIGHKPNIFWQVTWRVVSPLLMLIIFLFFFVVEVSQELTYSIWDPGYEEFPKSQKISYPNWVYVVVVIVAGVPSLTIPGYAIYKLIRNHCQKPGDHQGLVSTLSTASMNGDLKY
T1 sequence (Q9HBJ8 15-222 partner): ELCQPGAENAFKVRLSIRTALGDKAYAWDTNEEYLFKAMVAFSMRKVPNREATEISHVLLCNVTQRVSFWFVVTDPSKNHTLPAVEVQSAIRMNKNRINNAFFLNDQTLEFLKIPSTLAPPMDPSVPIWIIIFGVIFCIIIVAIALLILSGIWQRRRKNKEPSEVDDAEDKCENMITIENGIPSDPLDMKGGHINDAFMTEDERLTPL
Put plainly: 13C6,15N-isoleucine uptake in CHO cells with doxycycline-inducible expression of human SLC6A19 and TMEM27, RapidFire mass spectrometry (Example B-2). Conditions: read-out: SLC6A19_RapidFire Uptake Assay IC50. The class given is cell-based. The method, boiled down:
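Read-out is RapidFire mass-spec peak area of 13C6,15N-isoleucine taken up over 20 min at 37 °C, after 20 min compound pre-exposure in pH 7.2 HEPES-buffered saline. Cells: doxycycline-induced CHO co-expressing human SLC6A19 and TMEM27; compounds as duplicate 10-point 2-fold dilutions, positive control setting 0% activity.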

Test [2] deals with T1, human SLC6A19 and TMEM27. Nature of the test: Radiolabelled (3H) leucine uptake in CHO cells with doxycycline-inducible expression of human SLC6A19 and TMEM27 (Example B-1). The note with it: CHO cells with doxycycline-inducible expression of human SLC6A19 and TMEM27, read-out: SLC6A19_Radioligand Uptake Assay IC50. The class given is cell-based. In short, it runs like this: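 CHO cells were induced with doxycycline for 18 h at 37 °C, washed in HBSS, then exposed to compounds for 1 h: 8-point, 3-fold dilutions in duplicate, 0.5% DMSO final. Uptake measured by scintillation counting after 2 h shaking. Activity normalized with positive control as 0% and DMSO as 100%.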

`CC1(C(=O)NCc2cc3cc(F)c(CCc4ccon4)cc3[nH]2)CC1` [Compound 592, N-((5-fluoro-6-(2-(isoxazol-3-yl)ethyl)-1H-indol-2-yl)methyl)-1-methylcyclopropane-1-carboxamide]: the half-maximal inhibitory concentration (IC50) in test [1] amounted to 93.1 nM; in test [2] it was 163 nM.

Regarding `CC1(C(=O)NCc2cc3cc(Cl)c(OCc4ccccn4)cc3[nH]2)CC1` [Compound 41, N-((5-chloro-6-(pyridin-2-ylmethoxy)-1H-indol-2-yl)methyl)-1-methylcyclopropane-1-carboxamide], the figures for the half-maximal inhibitory concentration (IC50) in test [1] and in test [2] were 71 nM and 261 nM, respectively.

Turning to `Cc1cc2c(Cl)c(CNC(=O)N3CCC3)[nH]c2cc1OCc1cscn1` [Compound 475, N-((3-chloro-5-methyl-6-(thiazol-4-ylmethoxy)-1H-indol-2-yl)methyl)azetidine-1-carboxamide], the IC50 in test [1] is 138 nM; in test [2], 432 nM.

For the compound `O=C(NCc1cc2cc(F)c(NCc3ccon3)cc2[nH]1)N1CCCC1` [Compound 471, N-((5-fluoro-6-((isoxazol-3-ylmethyl)amino)-1H-indol-2-yl)methyl)pyrrolidine-1-carboxamide], the figures for the concentration for half-maximal inhibition (IC50) in test [1] and in test [2] were 1090 nM and 599 nM, respectively.

Consider `CC1CN(C(=O)NCc2cc3cc(F)c(OCc4ccon4)cc3[nH]2)C1` [Compound 389, N-((5-fluoro-6-(isoxazol-3-ylmethoxy)-1H-indol-2-yl)methyl)-3-methylazetidine-1-carboxamide], for which the 50% inhibitory concentration (IC50) in test [1] worked out at 485 nM; in test [2], 353 nM.

As for `CC1(C(=O)NCc2cc3cc(Cl)c(OCc4cn5ccccc5n4)cc3[nH]2)CC1` [Compound 632, N-((5-chloro-6-(imidazo[1,2-a]pyridin-2-ylmethoxy)-1H-indol-2-yl)methyl)-1-methylcyclopropane-1-carboxamide], the IC50 in test [1] was > 2050 nM; in test [2], 1470 nM.

Take `O=C(NCc1cc2cc(Cl)c(OCc3cccc(F)n3)cc2[nH]1)N1CCCC1` [Compound 425, N-((5-chloro-6-((6-fluoropyridin-2-yl)methoxy)-1H-indol-2-yl)methyl)pyrrolidine-1-carboxamide]: the IC50 in test [1] was determined as 115 nM; in test [2] it was 315 nM.

`CC1(C(=O)NCc2cc3cc(C(F)(F)F)c(OCc4ccon4)cc3[nH]2)CC1` [Compound 59, N-((6-(isoxazol-3-ylmethoxy)-5-(trifluoromethyl)-1H-indol-2-yl)methyl)-1-methylcyclopropane-1-carboxamide]: the results for the half-maximal inhibitory concentration (IC50) in test [1] and in test [2] were 153 nM and 214 nM, respectively.

For the compound `CC1(C(=O)NCc2cc3cc(C4CC4)c(OCc4cscn4)cc3[nH]2)CC1` [Compound 341, N-((5-cyclopropyl-6-(thiazol-4-ylmethoxy)-1H-indol-2-yl)methyl)-1-methylcyclopropane-1-carboxamide], the results for the concentration for half-maximal inhibition (IC50) in test [1] and in test [2] were 194 nM and 273 nM, respectively.

In the case of `O=C(NCc1cc2cc(F)c(OCc3cccc(F)n3)cc2[nH]1)C1CC1` [Compound 497, N-((5-fluoro-6-((6-fluoropyridin-2-yl)methoxy)-1H-indol-2-yl)methyl)cyclopropanecarboxamide], the IC50 in test [1] came to 184 nM; in test [2], 197 nM.

Regarding `CN(Cc1cn[nH]c1)C(=O)NCc1cc2ccc(OCc3cscn3)cc2[nH]1` [Compound 628, 1-((1H-pyrazol-4-yl)methyl)-1-methyl-3-((6-(thiazol-4-ylmethoxy)-1H-indol-2-yl)methyl)urea], the IC50 in test [1] was 3020 nM; in test [2], 2670 nM.

In the case of `CC1(C(=O)NCc2cc3ccc(OCc4ccc(F)nc4)cc3[nH]2)CC1` [Compound 34, N-((6-((6-fluoropyridin-3-yl)methoxy)-1H-indol-2-yl)methyl)-1-methylcyclopropane-1-carboxamide], the IC50 in test [1] amounted to 615 nM; in test [2] it was 602 nM.

With `O=C(NCc1cc2cc(Cl)c(NCc3cscn3)cc2[nH]1)N1CCCC1` [Compound 414, N-((5-chloro-6-((thiazol-4-ylmethyl)amino)-1H-indol-2-yl)methyl)pyrrolidine-1-carboxamide], the IC50 turned out to be 281 nM in test [1] and 339 nM in test [2].

As for `CC1(C(=O)NCc2cc3cc(Cl)c(OCc4cc(C(F)(F)F)on4)cc3[nH]2)CC1` [Compound 352, N-((5-chloro-6-((5-(trifluoromethyl)isoxazol-3-yl)methoxy)-1H-indol-2-yl)methyl)-1-methylcyclopropane-1-carboxamide], the IC50 in test [1] stood at 469 nM; in test [2], 67.5 nM.

Regarding `O=C(NCc1cc2cc(F)c(OCc3cscn3)cc2[nH]1)C1CC1` [Compound 136, N-((5-fluoro-6-(thiazol-4-ylmethoxy)-1H-indol-2-yl)methyl)cyclopropanecarboxamide], the IC50 was 38 nM in test [1] and 83 nM in test [2].

Regarding `CC1(C(=O)NCc2cc3cc(Cl)c(OCC4CCC4)cc3[nH]2)CC1` [Compound 634, N-((5-chloro-6-(cyclobutylmethoxy)-1H-indol-2-y1)methyl)-1-methylcyclopropane-1-carboxamide], the figures for the half-maximal inhibitory concentration (IC50) in test [1] and in test [2] were 168 nM and 404 nM, respectively.

`CNC(=O)NCc1cc2cc(F)c(OCc3cocn3)cc2[nH]1` [Compound 215, 1-((5-fluoro-6-(oxazol-4-ylmethoxy)-1H-indol-2-yl)methyl)-3-methylurea]: the IC50 worked out at 3890 nM in test [1] and 977 nM in test [2].

In the case of `CC1(C(=O)NCc2cc3cc(Cl)c(OCc4ccc(Cl)s4)cc3[nH]2)CC1` [Compound 320, N-((5-chloro-6-((5-chlorothiophen-2-yl)methoxy)-1H-indol-2-yl)methyl)-1-methylcyclopropane-1-carboxamide], the IC50 in test [1] amounted to 480 nM; in test [2], 1080 nM.

For `Cc1cc(COc2c(Cl)cc3cc(CNC(=O)C4(C)CC4)[nH]c3c2Cl)no1` [Compound 343, N-((5,7-dichloro-6-((5-methylisoxazol-3-yl)methoxy)-1H-indol-2-yl)methyl)-1-methylcyclopropane-1-carboxamide], the concentration for half-maximal inhibition (IC50) in test [1] worked out at 2480 nM; in test [2] it was 3160 nM.

On to `CC1(C(=O)NCc2cc3cc(F)c(OCc4ccccn4)cc3[nH]2)CC1` [Compound 330, N-((5-fluoro-6-(pyridin-2-ylmethoxy)-1H-indol-2-yl)methyl)-1-methylcyclopropane-1-carboxamide], for which the IC50 amounted to 123 nM in test [1] and 167 nM in test [2].

With `CC1(C(=O)NCc2cc3cc(Cl)c(OCc4cscn4)c(F)c3[nH]2)CC1` [Compound 18, N-((5-chloro-7-fluoro-6-(thiazol-4-ylmethoxy)-1H-indol-2-yl)methyl)-1-methylcyclopropane-1-carboxamide], the results for the IC50 in test [1] and in test [2] were 91 nM and 78 nM, respectively.

Regarding `Cc1cc(CCOc2cc3[nH]c(CNC(=O)C4(C)CC4)cc3cc2Cl)no1` [Compound 99, N-((5-chloro-6-(2-(5-methylisoxazol-3-yl)ethoxy)-1H-indol-2-yl)methyl)-1-methylcyclopropane-1-carboxamide], the IC50 in test [1] was determined as 81 nM; in test [2] it was 158 nM.

With `O=C(NCc1cc2cc(Cl)c(OCc3cccc(F)n3)cc2[nH]1)C1CC1` [Compound 499, N-((5-chloro-6-((6-fluoropyridin-2-yl)methoxy)-1H-indol-2-yl)methyl)cyclopropanecarboxamide], the values for the IC50 in test [1] and in test [2] were 55.4 nM and 213 nM, respectively.

Turning to `CC(=O)NCc1cc2cc(F)c(OCc3cc(C)on3)cc2[nH]1` [Compound 205, N-((5-fluoro-6-((5-methylisoxazol-3-yl)methoxy)-1H-indol-2-yl)methyl)acetamide], the IC50 in test [1] was determined as 714 nM; in test [2] it was 787 nM.

Consider `O=C(NCc1cc2cc(Cl)c(OCc3cocn3)cc2[nH]1)N1CCCC1` [Compound 113, N-((5-chloro-6-(oxazol-4-ylmethoxy)-1H-indol-2-yl)methyl)pyrrolidine-1-carboxamide], for which the concentration for half-maximal inhibition (IC50) in test [1] amounted to 174 nM; in test [2] it was 284 nM.

Consider `O=C(NCc1cc2cc(F)c(OCc3ccon3)cc2[nH]1)C1(F)CC1` [Compound 233, 1-fluoro-N-((5-fluoro-6-(isoxazol-3-ylmethoxy)-1H-indol-2-yl)methyl)cyclopropane-1-carboxamide], for which the values for the half-maximal inhibitory concentration (IC50) in test [1] and in test [2] were 57 nM and 112 nM, respectively.
